Results reported in patent publication US9028831B2, “Markers for selecting personalized therapies for the treatment of cancer” (Fundació Institut de Recerca Hospital Universitari Vall …, priority 2009, dated 2015).
Entries after “also recorded” stand apart in the source; their conditions may differ. Like-named read-outs stand apart in the source and are kept apart here.

Tests used:
parental cells DT40 = test: Camptothecin-induced apoptosis (subdiploid DNA content, propidium iodide FACS) in parental DT40 cells; type: cell-based, Chicken; conditions: 15-25 nM, 72 hours
Protocol: (§1) Chicken parental B cell line DT40, a sub-line where ATPX was interrupted by means of homologous recombination and a derivative line where APTX was re-introduced in the knock-out cells were used (Abel I, et al., Nature 2006; 443: 713-6). Camptothecin-induced apoptosis was evaluated as has been previously described (Arango D, et al., Cancer Res 2001; 61: 4910-5; Arango D, et al., Br J Cancer 2003; 89: 1757-65). Briefly, 2.5×10^5 cells were seeded by triplicate in 6-well Falcon plates (Becton Dickinson) and were left to adhere for 24 hours before sucking out the medium and changing it with fresh medium containing 0, 15 or 25 nM camptothecin (Calbiochem, San Diego, Calif.). After 72 hours of treatment, both the adhered cells and those that floated were collected, they were washed two times with 2 ml of PBS, and resuspended in PBS containing 50 μg/ml propidium iodide, 0.1% sodium citrate, and 0.1% Triton X-100. The cells were stained overnight at 4° C. and the DNA content was analyzed using a cell separator (FACSCalibur; Becton Dickinson). The cell debris were discarded, and the proportion of cells with subdiploid DNA content typical of apoptotic cells was quantified using WinList 2.0 (Verity Software House, Inc.). All the experiments were carried out in triplicate, and the mean from three independent experiments is shown.

[1] = tested on: DT40 knock-out cells with APTX re-introduced; test: Camptothecin-induced apoptosis in DT40 knock-out cells with APTX re-introduced; type: cell-based, Chicken; conditions: APTX knock-out DT40 cells with APTX reintroduced, 15-25 nM, 72 hours
Protocol: as §1

[2] = tested on: APTX knock-out cells DT40; test: Camptothecin-induced apoptosis in DT40 sub-line with APTX inactivated by homologous recombination; type: cell-based, Chicken; conditions: 15-25 nM, 72 hours, p<0.004
Protocol: as §1

[3] = tested on: metastatic colorectal cancer; test: Response, time to progression and survival of patients receiving irinotecan-based chemotherapy, by tumor aprataxin level; type: in vivo, human; conditions: for time to progression (TTP) median: irinotecan-based treatment
Protocol: A total of 135 patients with metastatic colorectal cancer receiving irinotecan-based chemotherapy in Hospital Universitario Vall d'Hebron were included in the study. The response to the chemotherapeutic treatment was evaluated by means of computerized axial tomography (CAT) and a response was considered complete when the complete disappearance of metastatic lesions was observed. […] A lesion size reduction observed by CAT greater than 30% or an increase above 20% were considered as partial response or progressive disease, respectively. The study was conducted according to the research protocols approved by the Clinical Research Ethics Committee.
After the histological examination of tumor sample sections stained with hematoxylin and eosin and fixed with formalin embedded in paraffin, areas containing a large proportion of tumor cells were selected from the 135 patients. Cores of 1.2 mm of tumor samples from each patient were arranged in duplicate in a new paraffin block using an apparatus for preparing tissue matrices from Beecher Instruments (Beecher Instruments, Silver Spring, Md.).
4 μm unstained sections of the tissue microarrays were mounted on slides coated with 3-aminopropyl-triethoxy-silane (Sigma, St. Louis, Mo., USA). The sections were deparaffinized in xylene and rehydrated by means of a gradual series of alcohol and distilled water. The antigen was recovered with preheated 10 mM pH=6 citrate buffer for 20 minutes at 95° C. For the immunohistochemical analysis, the commercial Novolink polymer detection system was used according to the manufacturer's instructions (Novocastra Laboratories; Newcastle, UK). A rabbit anti-aprataxin polyclonal antibody made against the C-terminus end of human aprataxin was used at a dilution 1:100 (4° C. overnight; Aviva Systems Biology Corp.; San Diego, Calif.). The staining was viewed using a solution of 3,3′-diaminobenzidine (DAB) and the sections were counter stained in Mayer's hematoxylin, washed in water, dehydrated through a series of ethanol solution, clarified in xylene and mounted. The aprataxin levels were evaluated without knowing the clinical data. A semi-quantitative scale from 0 to 3 was used to measure the staining intensity. The absence of aprataxin staining was graded as 0 and the low, moderate and high aprataxin levels were graded as 1, 2, and 3, respectively (see FIG. 2A-D). The mean grading of samples in duplicate was used in subsequent analysis.
Survival curves were plotted using Kaplan and Meier method and the survival differences were evaluated using log-rank test. Cox's proportional hazard model was used to evaluate the simultaneous contribution of the following covariables in the overall survival: sex, age, histological grade, and tumor aprataxin levels. Fisher's exact test, Chi-squared test and Mann-Whitney test were used to evaluate the differences between clinicopathological parameters in patients with high and low aprataxin levels (see Table 1). It was considered that the p values of less than 0.05 indicated statistic significant.

Compound	apoptosis induction (parental cells DT40)	CPT resistant phenotype after reintroduction of APTX [1]	apoptosis induction / sensitization to CPT [2]	Overall survival median [3]	Overall survival median ([3]; Low aprataxin patients)	Overall survival median ([3]; Total patients)	hazard ratio, overall survival ([3]; high vs absent/low aprataxin, 95% CI 1.21-3.63, log-rank p=0.008)	hazard ratio, time to progression ([3]; moderate/high vs absent/low aprataxin, 95% CI 1.04-2.29, log-rank p=0.03)	time to progression (TTP) median ([3]; patients with absence or low aprataxin levels)	time to progression (TTP) median ([3]; patients with moderate or high tumor aprataxin levels)
CC[C@@]1(O)C(=O)OCc2c1cc1n(c2=O)Cc2cc3ccccc3nc2-1 [CPT, camptothecin]	modest apoptosis induction	completely reestablished the CPT resistant phenotype; also recorded: fully reestablished the resistant phenotype	significantly sensitized; also recorded: significantly increased apoptosis induction	–	–	–	–	–	–	–
CCc1c2c(nc3ccc(OC(=O)N4CCC(N5CCCCC5)CC4)cc13)-c1cc3c(c(=O)n1C2)COC(=O)[C@]3(O)CC [irinotecan]	–	–	–	19 months	36.7 months	26.3 months	2.1	1.5	9.2 months	5.5 months
